Experimental findings from ChEMBL document CHEMBL1122188, “A quantitative structure-activity relationship study of the inhibitory action of a series of enkephalin-like peptides in the guinea pig ileum and mouse vas deferens bioassays” (J Med Chem, 1982) are described below.

Non-standard residues stand in square brackets, D forms with d. Residues, ends and D or L forms follow the SMILES beside them. Cha = N[C@@H](CC1CCCCC1)C(=O)O

Holding throughout (conditions): read-out: Log 1/IC50 (converted)
The species entered for one assay is Cavia porcellus. Briefly: Inhibitory activity for contractions of electrically stimulated guinea pig ileum was determined. The class given is functional, organism-based.
For assay [1], the target named is Delta-type opioid receptor (Mus musculus, UniProt P32300). In words: (§1) Inhibitory activity contractions of electrically stimulated mouse vas deferens was determined. The assay is classed as functional, tissue-based.
Chain of Delta-type opioid receptor (P32300 whole entry): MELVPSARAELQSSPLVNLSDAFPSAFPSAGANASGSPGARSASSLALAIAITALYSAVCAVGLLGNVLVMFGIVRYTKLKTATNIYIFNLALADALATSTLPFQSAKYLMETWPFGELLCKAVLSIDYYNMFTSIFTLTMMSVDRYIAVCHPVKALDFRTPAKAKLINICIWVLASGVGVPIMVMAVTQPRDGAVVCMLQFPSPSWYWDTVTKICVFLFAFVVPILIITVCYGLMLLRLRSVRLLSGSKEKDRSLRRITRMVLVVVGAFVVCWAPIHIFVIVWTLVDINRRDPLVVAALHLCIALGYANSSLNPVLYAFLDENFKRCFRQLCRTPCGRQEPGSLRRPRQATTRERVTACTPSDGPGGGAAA
The species entered for another assay is Mus musculus. Described as §1. The class given is functional, organism-based.

`CC(C)C[C@H](NC(=O)[C@H](Cc1ccc([N+](=O)[O-])cc1)NC(=O)CNC(=O)[C@H](C)NC(=O)[C@@H](N)Cc1ccc(O)cc1)C(N)=O`: the IC50 in the assay listed under Cavia porcellus is 0.00316 µM.

On to `CC(C)C[C@H](NC(=O)[C@H](CC12CC3CC(CC(C3)C1)C2)NC(=O)CNC(=O)[C@H](C)NC(=O)[C@@H](N)Cc1ccc(O)cc1)C(N)=O` (HELM PEPTIDE1{Y.A.G.[O=C([C@H](CC12CC3CC(CC(C3)C1)C2)N[*:1])[*:2]].L.[am]}$$$$V2.0), for which the IC50 in assay [1] was 2.95 µM; in the assay filed under Cavia porcellus, 1 µM.

As for `CC(C)C[C@H](NC(=O)[C@H](Cc1ccccc1)NC(=O)CNC(=O)[C@H](C)NC(=O)[C@@H](N)Cc1ccc(O)cc1)C(N)=O`, the IC50 in the assay filed under Mus musculus is 0.00955 µM; in the assay filed under Cavia porcellus it was 0.0112 µM.

As for `C[C@H](NC(=O)[C@@H](N)Cc1ccc(O)cc1)C(=O)NCC(=O)N[C@@H](Cc1ccccc1)C(=O)N[C@@H](CC12CC3CC(CC(C3)C1)C2)C(N)=O` (HELM PEPTIDE1{Y.A.G.F.[O=C([C@H](CC12CC3CC(CC(C3)C1)C2)N[*:1])[*:2]].[am]}$$$$V2.0), the IC50 is 0.0501 µM in assay [1] and 0.00603 µM in the assay listed under Cavia porcellus.

For `COc1ccc(C[C@H](N)C(=O)N[C@@H](C)C(=O)NCC(=O)N[C@@H](CC2CCCCC2)C(=O)N[C@@H](CCSC)C(N)=O)cc1` (H-Y(Me)AG[Cha]M-NH2), in the assay filed under Cavia porcellus, the IC50 was 0.0724 µM.

Take `CC(C)C[C@H](NC(=O)[C@H](CC1CCCCC1)NC(=O)CNC(=O)[C@H](C)NC(=O)[C@@H](N)Cc1ccc(O)cc1)C(N)=O` (HELM PEPTIDE1{Y.A.G.[Cha].L.[am]}$$$$V2.0): the IC50 in the assay filed under Cavia porcellus is 0.0912 µM.

For the molecule `C[C@H](NC(=O)[C@@H](N)Cc1ccc(O)cc1)C(=O)NCC(=O)N[C@@H](Cc1ccccc1)C(=O)N[C@H](C(N)=O)C(C)(C)C` (HELM PEPTIDE1{Y.A.G.F.[CC(C)(C)[C@H](N[*:1])C(=O)[*:2]].[am]}$$$$V2.0), the IC50 is 0.00977 µM in assay [1] and 0.0117 µM in the assay listed under Cavia porcellus.

For the molecule `C[C@H](NC(=O)[C@@H](N)Cc1ccc(O)cc1)C(=O)NCC(=O)N[C@@H](Cc1ccc([N+](=O)[O-])cc1)C(=O)N[C@@H](CC12CC3CC(CC(C3)C1)C2)C(N)=O`, the IC50 in assay [1] was 0.0204 µM; in the assay listed under Cavia porcellus, 0.0038 µM.

As to `COc1ccc(C[C@H](N)C(=O)N[C@@H](C)C(=O)NCC(=O)N[C@@H](Cc2ccc([N+](=O)[O-])cc2)C(=O)N[C@@H](CCSC)C(N)=O)cc1`, the IC50 was 0.00316 µM in assay [1] and 0.00229 µM in the assay listed under Cavia porcellus.

Regarding `CSCC[C@H](NC(=O)[C@H](Cc1ccccc1)NC(=O)CNC(=O)[C@H](C)NC(=O)[C@@H](N)Cc1ccc(O)cc1)C(N)=O`, in the assay listed under Cavia porcellus, the IC50 was 0.0115 µM.

Take `C[C@H](NC(=O)[C@@H](N)Cc1ccc(O)cc1)C(=O)NCC(=O)N[C@@H](Cc1ccc([N+](=O)[O-])cc1)C(=O)N[C@@H](CCC(C)(C)C)C(N)=O`: the IC50 in the assay listed under Cavia porcellus is 0.00191 µM.
